Measured values taken from patent US20100178652A1, “Materials and Methods for the Detection, Prevention and Treatment of Autoimmune Disease” (priority 2007, published 2010).

Legend:
STAT5 phosphorylation [1] = experiment: Persistence of STAT5 phosphorylation in mature myeloid cells when GM-CSF signaling is blocked; format: cell-based, NOD mouse; settings: NOD mature myeloid cells, once activated; inhibition of GM-CSF signaling
Source text: Flow cytometric analysis of fluorescently-conjugated antibody surface and intracellular binding will be used to phenotypically identify myeloid cells and quantify the level of STAT5 tyrosine phosphorylation in cells ex vivo and after in vitro stimulation. Cells will be first labeled with anti-CD11b and anti-IgM antibody conjugates to identify monocytes and macrophages (CD11b+/IgM−) in the sample, then fixed with 2% (v/v Cf) formaldehyde and permeabilized using 0.5% saponin in a high protein, isotonic buffer. Intracellular staining of STAT5Ptyr will be done using APC-conjugated anti-STAT5Ptyr specific monoclonal antibodies (Upstate Biotech, conjugated using Prozyme APC-labeling kit). This method is well developed in our laboratory and has shown good consistency in current studies. We will analyze the percentage of positive myeloid cells (% STATPtyr+/CD11b+) as well as mean fluorescence (MF) to assess both the number of cells in the myeloid population with activated STAT5 and the relative amount of phosphorylated STAT5 per cells after treatment. After flow analysis, the labeled cells are centrifuged onto slides and stain them for chromatin (DAPI, Molecular Probes). These cells were used for imaging by deconvolution microscopy as previously described and then used 3 dimensional projection rotational analysis to identify subcellular location of activated STAT5.

STAT5 phosphorylation [2] = settings: mature monocytes and macrophages; blocking GM-CSF signaling; ref [20]; cited from earlier work

## N#C/C(=C/c1ccc(O)c(O)c1)C(=O)NCc1ccccc1 [AG490]
STAT5 phosphorylation [1]
  persistence of STAT5 phosphorylation: not affected
STAT5 phosphorylation [2]
  persistence of phosphorylated STAT5: does not affect
